Results reported in US20080009448A1, “Peptide Derivative” (priority 2006, published 2008).

Experiments:
[1] = system: heat nociceptive stimulation; assay: Anti-nociceptive activity test, tail-flick method; type: in vivo, mouse
Protocol: (1) Experimental animal, male ddy mice (Japan SLC), weighing the body weight in the range of 22 to 25 g, were used for the studies. The animals had been kept under constant conditions (room temperature 22±2° C., humidity 55±5%, 12 hours light-and-dark cycle having light time 9:00 to 21:00 and dark time 21:00 to 9:00) until used for an experiment. The animals were fed the mouse solid diet (F2, Funabashi farm. Funabashi, Japan) with unrestricted tap water intake.
SS8225-01, 02, 03 04, 05, 06, 07 and 08 as examples and SS8225-09, 10, 11 and 12 as comparison examples were used as the administered drugs. […] In addition only Liger solution was administered as an experimental control. The animals were left for 60 minutes in the plastic cage to become familiar to the environment prior to the test in which measured a latent time for each mouse before drug administration in accordance with a tail-flick method noted below. Heat was radiated to a part of each mouse tail which is 2 cm from the end of its tail. Each of heat radiation periods before beginning of tail-flick was measured as a false pain threshold. Mice which responded to the stimulation within 2.5 to 3.5 seconds were pre-selected for the test. Administration solution under one administration condition for one kind of drug was administered to one experimental animal group including 10 mice. After the body weight of each mouse was measured, each volume of the administration solution was adjusted to be 0.1 mL/10 g of mouse body weight and then the solution was administered. The administration methods were two methods of subcutaneous administration (s. c.) and oral administration (p. o.). On subcutaneous administration, the administration solution of 0.1 mL per 10 g of body weight (0.1 mL/10 g) was injected into the back of the mouse using 27 gauge needle. On oral administration, the administration solution of 0.1 mL per 10 g of body weight (0.1 mL/10 g) was administered using an oral sonde.
Heat was radiated to a part of each mouse's tail of respective experimental group, which is 2 cm from the end of its tail, at 15, 30 and 60 minutes after the drug administration according to the preset measurement interval and a latent time until respective mouse swung its tail was measured as a false pain threshold value. The maximum stimulation period (cut-off-time) was set as 10 seconds to minimize the damage to the stimulation part. The anti-nociceptive effect was evaluated quantitatively by calculating % MPE (% of maximum possible effect) according to the following formula. [formula] T1: A latent time until beginning of tail-flick before respective drug administration (seconds) T2: A latent time until beginning of tail-flick after respective drug administration (seconds) Tc: A maximum stimulation period (cut-off-time)
The graphs (FIG. 1, FIG. 3, FIG. 5, FIG. 7, FIG. 9, FIG. 11, FIG. 13, FIG. 15, FIG. 17, FIG. 19, FIG. 21, FIG. 23, FIG. 25, FIG. 27, FIG. 29, FIG. 31, FIG. 33 and FIG. 35) showing a time-course variation of % MPE were created, in which a vertical axis is an average value with a standard error (means ±S. E. M.) obtained by calculation of % MPE of respective animals of 10 mice every administration condition of respective drugs and a horizontal axis is a time after administration. After treating % MPE data of each animal of experimental groups with respective doses and % MPE data of each animal of the experimental group with a control Ringer's solution at the same measurement time every drugs using the two-way layout dispersion analysis (two-way ANOVA), the hazard-ratio of P<0.05 was decided to be a significant difference according to Bonferroni post-test.
A lasting time of anti-nociceptive activity of each drug in the present description is the lasting time of anti-nociceptive activity under the dose condition providing the longest lasting time.
ED50 is represented in the unit of mg/Kg.

[2] = system: MSU induced knee osteoarthritis pain; assay: MSU induced knee osteoarthritis pain model, hind leg paw-pressure ratio; type: in vivo, rat; set-up: key to AUC of time-course variation of anti-nociceptive activity: AUC of the time course of anti-nociceptive activity as % MPE; conditions: for activity lasting-time: orally administered
Protocol: Experimental animal, male SD type rats, weighing the body weight in the range of 170 to 190 g, were used for the studies. The animals had been kept under constant conditions (room temperature 23±1° C., humidity 52±2%, 12 hours light-and-dark cycle having light time 7:00 to 19:00 and dark time 19:00 to 7:00) until used for an experiment. The animals were fed the mouse solid diet (F2, Funabashi farm. Funabashi, Japan) with unrestricted tap water intake, and kept in captivity for at least more than two days in a laboratory.
Any test drugs were dissolved in Ringer's solution (Fuso Yakuhin) to be used.
MSU was suspended with the suspension solution (10% of polyoxyethylene sorbitan mono-oleate (Tween 80: Nakarai Tesk) as 0.1 g per 1 mL. The animal was anesthetized with diethyl ether and after the surface of its left hind leg knee joint was wiped with 70% ethanol cotton, a porous administration of the suspension solution above noted was conducted into the cavity of let hind leg knee joint.
Pressures to both hind leg paw were measured using a paw-pressure measurement apparatus and recorded. Measurement time at respective times was 4.5 seconds. Calculated paw-pressure ratio (ppr) is a value calculated by dividing the pressure on the left hind leg by the pressure on the right hind leg according to the measured pressures on both hind legs.
The anti-nociceptive effect was evaluated quantitatively by calculating % MPE (% of maximum possible effect) according to the following formula. [formula]
In the formula, ppr 0 and ppr 1 are respective paw-pressure ratios on both hind legs before and after administration. ED50 value of anti-nociceptive activity was calculated using GraphPad Prism data-graph processing software version 4.0, San Diego, Calif., USA.
The strength of anti-nociceptive activity was represented by calculating the time-course variation of anti-nociceptive activity AUC using GraphPad Prism noted above.
Paw-pressure was measured twice at 4 hours after administration to provide ppr by calculation and the average of those values was both hind leg paw-pressure ratio before the drug administration. After the measurement of both hind leg paw-pressure before the drug administration, 0.1 mL of Ringer's solution or a test drug in Ringer's solution per 100 g rat body weight was orally administered, and then a paw-pressure was measured once every unit time after the oral administration.
Statistical processing was conducted using GraphPad Prism. After the two-way layout dispersion analysis, the hazard-ratio of P<0.05 was decided to be a significant difference according to Bonferroni post-test. The hazard-ratios were distinguished into less than 5% (P<0.05) and less than 1% (P<0.01) and represented as “*” and “**” in the same manner conducted for the Tail-flick method.

[3] = mice, p.o., at activity-peak time, parentheses = 95% confidence limit
[4] = mice, s.c., at activity-peak time, parentheses = 95% confidence limit
[5] = rat, MSU knee model, oral 15 mg/kg
[6] = rat, MSU knee model, oral 30 mg/kg

Molecule	activity-peak time after the oral administration ([1]; mice, p.o.) [min]	Oral ED50 [1, 3]	activity-peak time after the subcutaneous administration ([1]; mice, s.c.) [min]	Subcutaneous ED50 [1, 4] [mg/kg]	activity peak ([2]; rat, MSU knee model, oral) [min]	AUC of time-course variation of anti-nociceptive activity [2, 5]	AUC of time-course variation of anti-nociceptive activity [2, 6]	activity lasting-time ([2]; rat, MSU knee model) [min]	further results
CN1CC[C@]23c4c5ccc(O)c4O[C@H]2[C@@H](O)C=C[C@H]3[C@H]1C5 [Morphine]	45	29.9 (26.37-33.95) mg/Kg	30	2.51	90	1724	4485	300	ED50 ([1]; Mus musculus, po, mice, p.o., at activity-peak time, parentheses = 95% confidence limit, read-out: Oral ED50): 29.9 mg/kg; lasting time of anti-nociceptive activity ([1]; p.o., dose of 67.5 mg/Kg): 5 h; lasting time of anti-nociceptive activity ([1]; s.c., dose of 5 mg/Kg): 1.5 h; AUC of time-course variation of anti-nociceptive activity ([2]; rat, MSU knee model, oral 60 mg/kg): 13883; ED50 ([2]; rat, MSU knee model, oral, %MPE, range in parentheses, read-out: ED50 value at activity peak): 37.2 mg/kg
Iminoethyl-[Tyr]-[D-Met(O)]-[Phe]-[N-MeβAla]-NHCH3 [SS8225-07]	180	2.51 mg/kg	60	0.05	120	7894	20162	360	dosage providing the same AUC, as part of morphine dosage ([1]; AUC of %MPE vs time, either oral or subcutaneous administration (FIG. 37, 38)): a half through one fiftieth; lasting time of anti-nociceptive activity ([1]; p.o., dose of 10 mg/Kg): 8 h; lasting time of anti-nociceptive activity ([1]; s.c., dose of 0.125 mg/Kg): 5 h; anti-nociceptive activity compared with morphine and oxycodone ([2]; knee osteoarthritis model, FIGS. 77 and 78): stronger than morphine, and stronger than or equal to oxycodone; activity lasting-time, times longer than for morphine ([2]; rat, MSU knee model, oral): 1.2 times; AUC of time-course variation of anti-nociceptive activity ([2]; rat, MSU knee model, oral 7.5 mg/kg): 2919; ED50 value at activity peak ([2]; rat, MSU knee model, oral, %MPE, range in parentheses): 16.95 (3.17-90.59) mg/Kg; anti-nociceptive activities, times stronger than for morphine ([2]; rat, MSU knee model, oral, from ED50 of AUCs): ~2.1 times; ED50 of AUCs ([2]; rat, MSU knee model, oral, range in parentheses): 40.38 (31.08-52.48) mg/kg; anti-nociceptive activity lasting-times, times longer than for morphine ([2]; rat, MSU knee model, oral, stated after ED50 at activity peak): 2.2 times
